Common to all, as to type: cell-based
For assay [1], the target named is T1, Mineralocorticoid Receptor (MR) (Homo sapiens, UniProt P08235).
T1 construct: expressed in transfected cells; host or cells: 293T cells (ATCC)
T1 sequence (P08235 672-984): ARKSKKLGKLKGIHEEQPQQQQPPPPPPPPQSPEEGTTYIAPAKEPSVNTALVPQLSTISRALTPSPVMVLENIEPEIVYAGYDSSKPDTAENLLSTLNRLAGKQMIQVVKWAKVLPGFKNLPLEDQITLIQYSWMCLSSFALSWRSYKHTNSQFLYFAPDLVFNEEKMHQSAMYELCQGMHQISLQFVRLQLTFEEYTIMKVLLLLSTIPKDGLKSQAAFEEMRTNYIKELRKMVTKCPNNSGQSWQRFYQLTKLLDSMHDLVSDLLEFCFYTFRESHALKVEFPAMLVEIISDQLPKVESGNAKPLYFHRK
The assay is described as follows: Functional assay of mineralocorticoid receptor antagonism (Gal4-MR mammalian two hybrid luciferase reporter, 293T cells). The conditions noted are these: antagonism of aldosterone (0.4 nM)-induced MR activity. How it is done:
The MR antagonist activity of the compounds is determined in a mammalian two hybrid reporter system. The N-terminus of MR (MR-NT, sequence coding amino acid 1-597) is fused to the activation domain of the VP16 gene. The ligand binding domain of MR (MR-LBD, sequence encoding amino acid 672-984) is fused to the DNA binding domain of the yeast Gal4 gene. The MR gene is cloned from a human kidney cDNA library with PCR.
The assay is performed in 384 well plates. Briefly, 293T cells (ATCC) are transfected with expression vectors for Gal-4-MR-LBD and VP16-MR NT, and a luciferase reporter vector containing Gal4 binding sequence (pG5-Luc). Cells are plated in 384 well plates immediately after transfection (approximately 3×10^4 cells/well in 50 μl medium). The medium is supplemented with 3% charcoal-dextran treated fetal bovine serum (Hyclone). Twenty four hours after transfection, compounds prepared in DMSO are transferred to the cells. The cells are then stimulated with 0.4 nM final concentration of aldosterone (Acros) and incubated at 37° C. for another 24 hours before the luciferase activity is assayed with 20 μl of Bright-Glo (Promega) using a luminometer (CLIPR). The expression of luciferase is used as an indicator of aldosterone-induced MR trans-activation. Each compound is tested in duplicates with 12-concentration titration. IC50 values (defined as the concentration of test compound required to antagonize 50% of aldosterone-induced MR activity) are determined from the dose-response curve.

Assay [2] has as its target T2, Progesterone Receptor (PR) (Homo sapiens, UniProt P06401).
T2 sequence (P06401 679-933 limits assumed): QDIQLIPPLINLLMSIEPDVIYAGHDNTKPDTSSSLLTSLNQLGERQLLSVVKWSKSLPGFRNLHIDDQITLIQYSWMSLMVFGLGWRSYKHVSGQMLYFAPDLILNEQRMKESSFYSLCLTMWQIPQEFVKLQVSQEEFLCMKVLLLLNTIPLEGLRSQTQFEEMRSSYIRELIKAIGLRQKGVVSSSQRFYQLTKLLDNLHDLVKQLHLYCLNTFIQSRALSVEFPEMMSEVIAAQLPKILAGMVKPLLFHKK
Kind of assay: Functional assay of progesterone receptor antagonism (progesterone-induced alkaline phosphatase activity in T-47D cells). The conditions noted are these: antagonism of progesterone (3 nM)-induced PR activity, read-out: PR-T47D IC50. How it is done:
The PR antagonist activity of the compounds is determined by progesterone-induced alkaline phosphatase activity in the T-47D cell line (ATCC). In the T-47D breast cancer cells, progesterone specifically induces de novo synthesis of a membrane-associated alkaline phosphatase enzyme in a time and dose-dependent manner (Di Lorenzo et al., Cancer Research, 51: 4470-4475 (1991)). The alkaline phosphatase enzymatic activity can be measured with a chemiluminescent substrate, such as CSPD® (Applied Biosystems).
The assay is performed in 384 well plates. Briefly, T-47D cells are plated in 384 well plates at a density of approximately 2.5×10^4 cells/well in 50 μl medium supplemented with 10% fetal bovine serum. Twenty four hours later, the medium is aspirated. New medium that is free of phenol red and serum is added to the cells. Compounds prepared in DMSO are transferred to the cells. The cells are then stimulated with 3 nM final concentration of progesterone (Sigma) and incubated at 37° C. for another 24 hours before the alkaline phosphatase is assayed with 25 μl of CSPD® (Applied Biosystems) using a luminometer (CLIPR). The expression of alkaline phosphatase is used as an indicator of progesterone-induced PR trans-activation. Each compound is tested in duplicates with a 12-concentration titration. IC50 values (defined as the concentration of test compound required to antagonize 50% of progesterone-induced PR activity) are determined from the dose-response curve.

Assay [3] concerns the target T3, Glucocorticoid Receptor (GR) (Homo sapiens, UniProt P04150).
T3 construct: expressed in transfected cells; host or cells: COS-7 cells (ATCC)
T3 sequence (P04150 541-778 isoform P04150-3): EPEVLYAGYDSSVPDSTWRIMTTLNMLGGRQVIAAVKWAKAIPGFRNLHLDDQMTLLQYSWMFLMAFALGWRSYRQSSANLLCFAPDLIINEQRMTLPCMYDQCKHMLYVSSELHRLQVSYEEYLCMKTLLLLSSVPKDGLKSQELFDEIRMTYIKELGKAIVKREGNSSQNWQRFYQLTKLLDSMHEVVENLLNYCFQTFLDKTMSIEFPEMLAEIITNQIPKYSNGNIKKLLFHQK
The assay is described as follows: Functional assay of glucocorticoid receptor antagonism (Gal4-GR-LBD luciferase reporter, COS-7 cells). The conditions noted are these: antagonism of dexamethasone (10 nM)-induced GR activity. How it is done:
The GR antagonist activity of the compounds is determined in a mammalian two hybrid reporter system. The ligand binding domain of GR (GR-LBD, sequence encoding amino acid 541-778) is fused to the DNA binding domain of the yeast Gal4 gene. The GR gene is cloned from a human lung cDNA library with PCR.
The assay is performed in 384 well plates: COS-7 cells (ATCC) are transfected with expression vectors for Gal-4-GR-LBD and a luciferase reporter vector containing Gal4 binding sequence (pG5-Luc). Cells are plated in 384 well plates immediately after transfection (approximately 8000 cells/well in 50 μl medium). The medium is supplemented with 3% charcoal-dextran treated fetal bovine serum (Hyclone). Twenty four hours after transfection, compounds prepared in DMSO are transferred to the cells. The cells are then stimulated with 10 nM final concentration of dexamethasone (Sigma) and incubated at 37° C. for another 24 hours before the luciferase activity is assayed with 20 μl of Bright-Glo (Promega) using a luminometer (CLIPR). The expression of luciferase is used as an indicator of dexamethasone-induced GR trans-activation. Each compound is tested in duplicates with a 12-concentration titration. IC50 values (defined as the concentration of test compound required to antagonize 50% of dexamethasone-induced GR activity) are determined from the dose-response curve.

Data on 19 compounds can be found in patent US7807841B2, “Spiro-containing compounds and compositions as modulators of steroid hormone nuclear receptors” (IRM LLC, priority 2005, dated 2010).

Usually IC50 stands for the concentration that inhibits the measured activity by half.

A value given as a limit tells only on which side of the number the result lay.

Regarding `CCCC12CCC(=O)N1CC1(O2)c2ccccc2C=Cc2ccccc21` (stereo not drawn) [FRS-9], the IC50 in assay [1] is below 0.1 µM; in assay [2], 1 to 10 µM; in assay [3] it was 1 to 10 µM.

Take `CC(=O)N1CC2(OC1(C)C)c1ccccc1C=Cc1ccccc12` [SOXS-3]: the IC50 in assay [1] is 0.1 to 1 µM; in assay [2], 1 to 10 µM; in assay [3] it was 1 to 10 µM.

As to `CC12CCC(=O)N1CC1(O2)c2ccccc2C=Cc2ccccc21` (single isomer, unassigned) [FRS-1 (Chiral Synthesis)], the IC50 was below 0.1 µM in assay [1], above 10 µM in assay [2] and 1 to 10 µM in assay [3].

As to `CC(=O)N1CC2(OC13CCCCC3)c1ccccc1C=Cc1ccccc12` [SOXS-6], the IC50 is 0.1 to 1 µM in assay [1], 0.1 to 1 µM in assay [2] and above 10 µM in assay [3].

Consider `CC12CCCC(=O)N1CC1(O2)c2ccccc2C=Cc2ccccc21` (stereo not drawn) [FRS-4], for which the results for the IC50 in assay [1], in assay [2] and in assay [3] were 0.1 to 1 µM, 1 to 10 µM and above 10 µM, respectively.

Take `Oc1ccc(C2=NCC3(O2)c2ccccc2C=Cc2ccccc23)cc1` [OXS-1]: the IC50 in assay [1] was 0.1 to 1 µM; in assay [2], above 10 µM; in assay [3], above 10 µM.

On to `O=C1CCC2(c3ccccc3)OC3(CN12)c1ccccc1C=Cc1ccccc13` (stereo not drawn) [FRS-2], for which the IC50 in assay [1] is 0.1 to 1 µM; in assay [2], above 10 µM; in assay [3], above 10 µM.

Consider `O=C1CCCC2(C(F)(F)F)OC3(CN12)c1ccccc1C=Cc1ccccc13` (stereo not drawn) [FRS-11], for which the IC50 was below 0.1 µM in assay [1], above 10 µM in assay [2] and 1 to 10 µM in assay [3].

As to `O=C1CCC2(c3cccs3)OC3(CN12)c1ccccc1C=Cc1ccccc13` (stereo not drawn) [FRS-8], the IC50 was below 0.1 µM in assay [1], 1 to 10 µM in assay [2] and 1 to 10 µM in assay [3].

Consider `CC1(C)OC2(CN1S(C)(=O)=O)c1ccccc1C=Cc1ccccc12` [SOXS-4], for which the IC50 in assay [1] was below 0.1 µM; in assay [2], 0.1 to 1 µM; in assay [3] it was above 10 µM.

Consider `CC1(C)OC2(CN1C(=O)Nc1ccc(F)cc1F)c1ccccc1C=Cc1ccccc12` [SOXS-1], for which the figures for the IC50 in assay [1], in assay [2] and in assay [3] were 1 to 10 µM, 1 to 10 µM and above 10 µM, respectively.

In the case of `CC12CCC(=O)N1CC1(O2)c2ccccc2CCc2ccccc21` (single isomer, unassigned) [FRS-13 (Chiral Synthesis)], the IC50 is below 0.1 µM in assay [1], above 10 µM in assay [2] and above 10 µM in assay [3].

With `CC12CCCC(=O)N1CC1(O2)c2ccccc2CCc2ccccc21` (stereo not drawn) [FRS-14], the IC50 in assay [1] is 0.1 to 1 µM; in assay [2], 1 to 10 µM; in assay [3], above 10 µM.

Take `CC12CCC(=O)N1CC1(O2)c2ccccc2C=Cc2ccccc21` (stereo not drawn) [FRS-1]: the IC50 in assay [1] is below 0.1 µM; in assay [2], above 10 µM; in assay [3] it was above 10 µM.

Take `CC12CCCCC(=O)N1CC1(O2)c2ccccc2C=Cc2ccccc21` (stereo not drawn) [FRS-6]: the figures for the IC50 in assay [1], in assay [2] and in assay [3] were 0.1 to 1 µM, above 10 µM and above 10 µM, respectively.

In the case of `COc1ccc(C23CCC(=O)N2CC2(O3)c3ccccc3C=Cc3ccccc32)cc1` (stereo not drawn) [FRS-5], the concentration for half-maximal inhibition (IC50) was 0.1 to 1 µM in assay [1], above 10 µM in assay [2] and above 10 µM in assay [3].

For `O=C1CCC2(C3CC3)OC3(CN12)c1ccccc1C=Cc1ccccc13` (stereo not drawn) [FRS-10], the IC50 is below 0.1 µM in assay [1], above 10 µM in assay [2] and 1 to 10 µM in assay [3].

For `O=C1CCC2(c3ccc(F)cc3)OC3(CN12)c1ccccc1C=Cc1ccccc13` (stereo not drawn) [FRS-3], the IC50 in assay [1] is 0.1 to 1 µM; in assay [2], above 10 µM; in assay [3], above 10 µM.

Turning to `CC12CCC(=O)N1CC1(O2)c2ccccc2CCc2ccccc21` (stereo not drawn) [FRS-13], the IC50 is below 0.1 µM in assay [1], above 10 µM in assay [2] and above 10 µM in assay [3].
